Measured values: patent publication US8168650B2, “Therapeutic uses of bicyclic ligands of sigma 2 receptor” (priority 2006, dated 2012)
Entries after “also recorded” stand apart in the source; their conditions may differ. Like-named read-outs stand apart in the source and are kept apart here.

Key:
EMT-6 cells [1] = assay: Cytotoxicity assay (MTS) in EMT-6 cells; type: cell-based, mouse
Protocol: Cell culture conditions. EMT-6 mouse breast tumor cells^39 were cultured in DMEM supplemented with 10% fetal bovine serum. The cells were maintained at 37° C. in a humidified incubator with a 5% CO2/95% air atmosphere.
Cytotoxicity assay. The cytotoxic effect of the sigma ligands on EMT-6 cells was measured using the MTS colorimetric assay. MTS is bioreduced by cells into a colored formazan product with an absorbance at 490 nm. The quantity of the products is directly proportional to the number of viable cells in the culture. The MTS assay was performed using the CellTiter96Aqueous One Solution Assay (Promega, Madison, Wis.) according to the manufacturer's protocol. Briefly, EMT-6 cells were seeded at 2×10^3/well in 96-well plates on the day prior to treatment with the sigma ligand. Each sigma ligand was first dissolved in DMSO, and then serially diluted to get the desired concentration. The final concentration of DMSO in the cell culture medium was no more than 0.5%. After a 24 hour or 48 hour treatment with the various sigma ligands, cell death was assessed as follows. The CellTiter 96 AQueous One Solution Reagent was added to each well, and the plate was incubated for 2 hours at 37° C. The plate was then read at 490 nm in a Victor 3 plate reader (PerkinElmer Life and Analytical Sciences, Shelton, Conn.).
In these experiments, a number of sigma ligands, having a wide range of affinities for σ1 and σ2 receptors, were evaluated for their efficacy to kill EMT-6 cells. […] Cells were incubated for 24 hours or 48 hours with various concentrations of the sigma ligands. Cytotoxicity and cell viability were quantified using the MTS assay.

caspase-3/7 = assay: Caspase-3/7 whole cell assay in EMT-6 cells; type: cell-based, mouse; conditions: EMT-6, 40 μM, 24 h
Protocol: Detection of intracellular cellular caspase-3/7 activity. The activation of endogenous caspase-3/7 by the sigma ligands was measured using the CellProbe HT caspase-3/7 whole cell assay (Beckman Coulter, Fullerton, Calif.). The cell permeable, nonfluorescent bisamide substrate, Z-DEVD-R110, was added to the intact cells to detect apoptosis. Upon specific cleavage by caspase-3/7, Z-DEVD-R110 is converted to a fluorescent compound, and the fluorescent signal can be measured as follows. After adding the substrate, Z-DEVD-R110, to the cells treated with a sigma ligand, the plate was incubated for an additional 1.5-2 hour, and the resulting fluorescence measured using a Victor 3 microplate fluorometer at excitation and emission wavelengths of 485 nm and 535 nm, respectively.
In these experiments, to assess whether caspase-like activity was involved in the cytotoxic pathway, a caspase-3/7 whole cell assay was performed. This assay has advantages over other cell-based assays which use a cell lysate to monitor the activity of caspase-3/7. By not disrupting the cells, the whole cell assay tends to minimize the background noise contributed by non-specific protease activity in the cell lysates. Consequently, a greater specificity for the caspase-3/7 activity can be achieved with the whole cell assay. […] The accumulation of the fluorescent product was quantified using a fluorescence microplate reader. […]

σ1 receptor [2] = biological target: T1, σ1 receptor (Cavia porcellus, UniProt Q60492)
T1 sequence (Q60492 whole entry): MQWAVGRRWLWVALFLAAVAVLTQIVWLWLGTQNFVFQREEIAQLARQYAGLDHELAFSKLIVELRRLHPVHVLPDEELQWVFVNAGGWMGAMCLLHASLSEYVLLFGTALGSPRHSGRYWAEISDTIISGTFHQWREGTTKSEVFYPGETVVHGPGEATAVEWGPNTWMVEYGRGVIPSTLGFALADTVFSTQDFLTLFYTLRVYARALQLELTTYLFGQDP
Protocol: (§1) In vitro binding studies were conducted in order to determine the affinity of the target compounds at σ1 and σ2 receptors.
(§2) In this example, test compounds were dissolved in N,N-dimethylformamide (DMF), dimethylsulfoxide (DMSO) or ethanol and then diluted in 50 mM Tris-HCl, pH 7.4 buffer containing 150 mM NaCl and 100 mM EDTA. Membrane homogenates were made from guinea pig brain for σ1 binding assays and rat liver for σ2 binding assays. Membrane homogenates were diluted with 50 mM Tris-HCl buffer, pH 8.0, and incubated at 25° C. in a total volume of 150 μL in 96-well plates with the radioligand and test compounds with concentrations ranging from 0.1 nM to 10 μM. After incubation was completed, the reactions were terminated by the addition of 150 μL of ice-cold wash buffer (10 mM Tris-HCl, 150 mM NaCl, pH 7.4) using a 96-channel transfer pipette (Fisher Scientific, Pittsburgh, Pa.), and the samples harvested and filtered rapidly through 96-well fiberglass filter plate (Millipore, Billerica, Mass.) that had been presoaked with 100 μL of 50 mM Tris-HCl buffer, pH 8.0, for 1 h. Each filter was washed three times with 200 μL of ice cold wash buffer.
(§3) Ki values were calculated using the method of Cheng and Prusoff20 and represent mean values±SEM.

[3] = test system: pancreatic cancer cell lines (Panc-02, CFPAC-1, AsPC-1, Panc-1); assay: Apoptosis in pancreas cancer cell lines (TUNEL / cleaved caspase-3, flow cytometry); type: cell-based, mouse, human; conditions: 24 hours incubation
Protocol: Tumor cells were seeded at a density of approximately 0.2×10^6 cells per well in 12-well plates in 1.0 ml culture medium. Cells were split and pre-incubated at 37° C. in humidified 5% CO2 for more than 24 hours (Panc-02) and 48 hours (CFPAC-1, AsPC-1, Panc-1) to insure uniform growth conditions. Compounds were dissolved in DMSO and added to the culture medium at the concentrations indicated. The final concentration of DMSO in the cell culture medium was less than 1%. The cells were then incubated for 24 hours at 37° C. in humidified 5% CO2. The extent of apoptosis was subsequently measured as previously reported (Guelen, L., et al., Oncogene 2004, 23: 1153-1165). Briefly, staining was performed on trypsin-EDTA treated cultures that had been fixed with 1% paraformaldehyde and 90% methanol. Cell pellets were resuspended in TUNEL reagent (APO-BRDU kit, San Diego, Calif.) or cleaved caspase-3 antibody (Cell Signaling Technology, Inc. Boston, Mass.) and incubated overnight at room temperature (TUNEL) or 4° C. (cleaved caspase-3). After washing, cells were resuspended in fluorescein antibody or 7-AAD buffer and incubated for 1 hour at room temperature. Cell-associated fluorescence was determined using a flow cytometry (FACScan, BD Biosciences) and analyzed with CellQuest software (BD Biosciences).
At the highest dose tested (10 μM), all sigma-2 receptor ligands induced an additional 10-20% of the cells to undergo apoptosis (FIG. 15A). […] The pan-caspase inhibitor (Z-VAD-fmk) and caspase-3/7 inhibitor (DEVD-CHO) prevented sigma-2 receptor ligand-induced apoptosis in panc-02 cells, while the caspase-1 inhibitor (YVAD-CHO) had no effect (FIG. 15B).

EMT-6 cells [4] = assay: Colony formation assay on Doxorubicin-treated EMT-6 cells; type: cell-based, mouse
Protocol: This Example illustrates colony formation assay on Doxorubicin (“Dox”)-treated EMT-6 cells in the presence or absence of 2 μM WC-II-26. The structures of the sigma ligands used in this and subsequent examples are illustrated in FIG. 5 and FIG. 6.

EMT-6 cells [5] = assay: TUNEL assay, enhancement of Dox-induced apoptosis in EMT-6 cells; type: cell-based, mouse
Protocol: In these experiments, a TUNEL assay was used to detect apoptotic cells with damaged DNA strands. […] Furthermore, EMT-6 cells treated with Dox at 30 nM yielded only 10% TUNEL-positive cells. However, when EMT-6 cells were treated with 2 μM WC-II-26 plus 30 nM Dox, the percentage of TUNEL-positive cells rose to 43.3%.

Panc-02 tumors = assay: Antitumor effect in vivo: tumor growth and survival, Panc-02 model; design: species or system C57BL/6 mice; conditions: listed as WC26
Protocol: Mean tumor diameter was measured three times each week.

σ1 receptor [6] = biological target: T1, σ1 receptor; assay: biochemical
Protocol: as §1, §2, §3

[7] = Toxicity in treated mice (serum biochemistry, immunohistochemistry)
Protocol: Female C57BL/6 mice (8-12 weeks old) were purchased from the NCI and acclimated for at least 1 week before tumor implantation. […] For the survival study, mice (N=10 per group) were treated with sigma-2 receptor ligand at the stated concentration or vehicle control once a day for 5 days.

Panc-02 tumor allografts = assay: In vivo apoptosis (FACS, active caspase-3) in tumor and organs of Panc-02 bearing mice
Protocol: Female C57BL/6 mice (8-12 weeks old) were purchased from the NCI and acclimated for at least 1 week before tumor implantation. All mice were injected in the right flank with 200 μl of a single cell suspension containing 1.0×10^6 Panc-02 cells. Treatment of the tumors started 2 weeks after tumor implantation when their size reached a mean diameter of 5-8 mm. To evaluate the effect of sigma-2 receptor ligands both systemically and on tumor in vivo, several mice were sacrificed after a single treatment. Necropsy was performed and single cell suspensions were prepared from retrieved organs. The extent of apoptosis in these cells was measured by FACS (described above).

[8] = Mus musculus, EMT6, 24 h, read-out: EC50 (μM, 24 hours), EMT-6, MTS assay, 24 hours
[9] = Mus musculus, EMT6, 48 h, read-out: EC50 (μM, 48 hours), EMT-6, MTS assay, 48 hours

O[C@@H](CN1C2CCC1CC(c1ccccc1)C2)c1cccc(Br)c1 (some centres unmarked) [RHM-I-138]
EC50 (EMT-6 cells [1]; [8]): 32.5 ± 3.5 µM
EC50 (EMT-6 cells [1]; [9]): 16 µM
EC50 (EMT-6 cells [1]; read-out: EC50 (μM, 48 hours), EMT-6, MTS assay, 48 hours): 16.5 ± 2.1 µM
increase of endogenous caspase-3/7 activity compared with untreated cells (caspase-3/7): 2 fold
Ki (σ1 receptor [2]): 0.544 µM

COc1ccc(C)cc1NC(=O)OC1CC2CCCC(C1)N2CCCCCCN (centres unmarked) [SV119]
EC50 (EMT-6 cells [1]; [8]): 16 ± 1.4 µM
EC50 (EMT-6 cells [1]; [9]): 11 µM
increase of endogenous caspase-3/7 activity compared with untreated cells (caspase-3/7): 2 fold
apoptosis in all pancreas cancer cell lines tested [3]: dose-dependent apoptosis

COc1ccc(C)cc1NC(=O)O[C@H]1C[C@H]2CCC[C@@H](C1)N2Cc1ccc(N(C)C)cc1 [WC-II-26]
EC50 (EMT-6 cells [1]; [8]): 42.5 ± 3.5 µM
EC50 (EMT-6 cells [1]; [9]): 12.5 µM
number of colonies formed compared to control cells (EMT-6 cells [4]; EMT-6, 2 μM WC-II-26 alone): not changed significantly
ability of survival reduced (% of control) (EMT-6 cells [4]; EMT-6, 2 μM WC-II-26 combined with 10 nM Dox): 38 % of control
ability of survival reduced (% of control) (EMT-6 cells [4]; EMT-6, 2 μM WC-II-26 combined with 20 nM Dox): 77 % of control
ability of survival reduced (% of control) (EMT-6 cells [4]; EMT-6, 2 μM WC-II-26 combined with 30 nM Dox): 86 % of control
ability of survival reduced (% of control) (EMT-6 cells [4]; EMT-6, 2 μM WC-II-26 combined with 40 nM Dox): 92 % of control
TUNEL-positive cells (EMT-6 cells [5]; EMT-6, 2 μM WC-II-26 alone): less than 5%
TUNEL-positive cells (EMT-6 cells [5]; EMT-6, 2 μM WC-II-26 plus 30 nM Dox): 43.3%
apoptosis in all pancreas cancer cell lines tested [3]: dose-dependent apoptosis
tumor growth / tumor size versus vehicle control (Panc-02 tumors; 50 or 100 mg/kg (1 or 2 mg/day) intraperitoneal once a day for five days): tumors shrank; also recorded: smaller tumors
survival (tumor diameter 15 mm or ulceration as endpoint) (Panc-02 tumors; 50 or 100 mg/kg (1 or 2 mg/day) once a day for five days, p=0.002): significant survival benefit; also recorded: compared favorably
Ki (σ1 receptor [6]): 5.57 µM
acute, systemic toxicity based on blood chemistry parameters ([7]; 50 or 100 mg/kg once a day for five days): no acute, systemic toxicity
acute toxicity on immunohistochemical evaluation of normal tissues ([7]; after WC26 treatment (data not shown)): no acute toxicity
toxicity in serum biochemistry data ([7]; after systemic administration): no apparent toxicity
effect on serum biochemistry at the highest dose tested ([7]; values still within reference ranges): elevated AST and depressed creatinine and glucose levels
tumor cells active caspase-3 positive (Panc-02 tumor allografts; single 2 mg dose, Panc-02 tumor allografts, p<0.0001): up to 50%
apoptosis in pancreas and livers (Panc-02 tumor allografts; systemic administration): < 10%
apoptosis in brain, lung, kidney or spleen (active caspase-3, FACS) (Panc-02 tumor allografts; systemic administration, any of the concentrations tested): did not induce apoptosis
